In data set [1] the test system is patient with neuropathic pain in both feet. Description: Case report 2: topical bromhexine cream, NRS pain score, neuropathic forefoot pain. The data set is classed as in vivo, human. The conditions noted are these: for effect of earlier treatment (patient history): before bromhexine. From the text:
(§1) In the following Examples a dermal topical cream was used comprising 20% (w/w) bromhexine HCl (10 g), medium-chain triglycerides (MCTs; Triglycerida Saturata Medium Migloyol® 812N, FAGRON GmbH & Co. KG, Cas No. 73398-61-5) (5 g), Linola Creme ad 50 g (Dr. August Wolff GmbH & Co. KG Arzneimittel, PZN 02489672; emulsion O/W containing unsaturated fatty acids (C182), carbomer 980, decyloleat, glycerol monosterate, ceteareth-3, phenoxyethanol, stearic acid, trometamol, wax bleached and purified water), unless stated otherwise. The dermal topical cream was prepared by mixing bromhexine with the MCTs and adding the Linola Creme to obtain a homogenous cream. We chose a dermal topical cream rather than a gel, because a cream is better absorbed by the skin. Bromhexine was fast and easy to formulate into a topical pharmaceutical composition, particularly into a homogenous cream.
(§2) The dermal topical cream was administered (thinly) to the skin in the affected area and a beneficial effect was typically noticed within 30 min. The effect lasted for about 4 to 12 hours, typically 6 hours. For long term treatment the cream was administered 2 to 3 times per day. In some cases a once daily administration was sufficient.
(§3) In all case reports shown below, the intensity of pain is reported with the NRS-Score (NRS=numeric rating scale) on which the patient rates their pain between ‘0=no pain’ and ‘10=unbearable pain’. The NRS-Score is the standard of pain evaluation in international publications and according to the literature an intensity of NRS 3 or lower usually is felt as ‘tolerable’ by patients with chronic pain.
The […] presented neuropathic pain in both feet and felt “running on coals” and as “gripped in a vice”, walking or gardening were almost impossible. It could not be explained in orthopaedic terms and no polyneuropathy was detected on neurographic investigation. […] Gabapentin, opiates and topical lidocaine were not helpful. After topical bromhexine the pain of NRS 5 during the heel-to-toe roll and the forefoot touch sensitivity decreased to NRS 1 within 15 min and disappeared after 30 min for hours (FIG. 6, last columns, “neuropathic forefoot pain”).

Data set [2] relates to patient with chronic severe pain syndrome of both hands and arms from unclear origin. Briefly: Case report 8: topical bromhexine, chronic unclear severe pain syndrome of hands and arms. The data set is classed as in vivo, human.
Text: as §1, §2
Further the extent of possible finger spreading was much better in their left hand, which was treated with the bromhexine compared to their untreated right hand (FIG. 1 C). Particularly the extent of the “pain limited” finger spreading of their bromhexine treated left hand hand compared to their untreated right hand increased. In their untreated right hand pain started immediately with the first movement. Further, the extent of possible free of pain elbow rotation 20 min after bromhexine in their left treated elbow increased (FIG. 1D, bottom panel). No movement free of pain was possible in their right elbow (FIG. 1D, top panel).

For data set [3], the system named is patient with severe chronic low back pain and S1 radiculopathy. Briefly: Case report 5: topical bromhexine, low back pain (S1-radiculopathy). Format: in vivo, human.
Text: as §1
(§4) The dermal topical cream was administered (thinly) to the skin in the affected area and a beneficial effect was typically noticed within 30 min. The effect lasted for about 4 to 12 hours, typically 6 hours. For long term treatment the cream was administered 2 to 3 times per day. In some cases a once daily administration was sufficient. […]

The subject of data set [4] is patient with postherpetic neuralgia. Description: Case report 4: topical bromhexine, postherpetic neuralgia. Format: in vivo, human. Conditions: for pain in the treated area (NRS): untreated abdominal area unchanged.
Text: as §1, §2, §3
A patient contracted an infection with the herpes zoster virus followed by skin eruptions 3 years ago. In the affected area of the right thorax they developed a dynamic allodynia and pinprick hyperalgesia and hypersensitivity to cold and airbrush which spread out circular to the abdominal region. Only the dorsal part of the area was treated with bromhexine. […]

Data set [5] has as its system patient with chronic pain caused by osteoarthritis of the fingers. Briefly: Case report 9: topical bromhexine, osteoarthritis of the fingers. Format: in vivo, human. Conditions: 15 min after topical bromhexine; before: incomplete and very painful.
Text: as §1, §2
A patient with chronic pain caused by osteoarthritis of the fingers for many years. Forming a fist was incomplete and very painful. […]

Data set [6] has as its system patient with osteoarthritis in both knees and chronic postsurgical pain (CPSP) after knee replacement. Description: Case report 1: topical bromhexine cream, NRS pain score, knees. The data set is classed as in vivo, human.
Text: as §1, §2, §3
A patient suffered from osteoarthritis in both knees and had received knee replacement followed by chronic postsurgical pain (CPSP) in one of it. […] Starting on a pain level of NRS 7, 30 min after topical bromhexine the pain decreased to NRS 6 and to NRS 4 within 2 hours. […] On another occasion the pain was reduced in both knees from NRS 6 before bromhexine treatment to NRS 3 after 2 hours.

In data set [7] the test system is patient with pain in right hand and wrist due to osteoarthritis. Briefly: Case report 3: topical bromhexine cream, NRS pain score, osteoarthritis of hand and wrist. Format: in vivo, human. The conditions noted are these: within 2 hours after topical bromhexine cream; NRS 6 before treatment.
Text: as §1, §4

The test system of data set [8] is patient with rheumatoid arthritis and fibromyalgia. Description: Case report 6: topical bromhexine cream, rheumatoid arthritis and fibromyalgia, hands. The data set is classed as in vivo, human.
Text: as §1, §2
A rheumatoid arthritis and fibromyalgia for many years developed a chronic pain disease in a person. Hands were distorted painfully and movements like the closure of fist were only possible very slowly and the movement was painful and incomplete. Self-supply was threatened. The medical options for pain therapy were limited due to long-term side effects on stomach, kidney, cardiovascular system and liver by nonsteroidal anti-rheumatic drugs (NSAIDS) or coxibes as well as the risk of tumbling caused by central nervous effects as sedation and dizziness. Bromhexine cream was applied at both hands. Already 2 min later the patients started to move both hands and ‘searched their pain’ because it was improved and movements could be performed more easily, quickly and complete. […]

Data set [9] concerns patient with complex regional pain syndrome (CRPS). Briefly: Case report 7: topical bromhexine, complex regional pain syndrome (CRPS). Format: in vivo, human. The conditions noted are these: 30-45 min following the treatment.
Text: as §1, §4

The subject of another data set is mucus. Conditions: cited from earlier work.
The test system of data set [10] is patient with painful left knee after meniscus surgery. Description: Case report 3: topical bromhexine, NRS pain score, knee pain after meniscus surgery. The data set is classed as in vivo, human. Conditions: after bromhexine treatment; NRS 8 before; time not stated.
Text: as §1, §4

The subject of the next data set is treated patients. Briefly: Topical bromhexine cream in pain patients: onset, duration, side effects (all cases). The data set is classed as in vivo, human.
Text: as §1, §4

For data set [11] the following is noted: in vivo; cited from earlier work.
For data set [12], the system named is patient with severe fibromyalgia pain. Description: Case report 10: topical bromhexine, severe fibromyalgia. The data set is classed as in vivo, human. Conditions: 25 min after topical bromhexine.
Text: as §1, §2
A patient with severe fibromyalgia pain presented an exacerbation with painful hand/finger movements and swelling. […] The patient was surprised about the reduced swelling, the possibility of the closure of fist and a reduction of the functional impairment during movement. Closure of the fist was only possible to a half-closed position without (or almost no) pain before treatment (FIG. 4C, top panel).

In data set [13] the test system is patient with fibromyalgia pain. Briefly: Case report 11: topical bromhexine, fibromyalgia pain of the hands. Format: in vivo, human.
Text: as §1, §4

For the next data set, the system named is rodents. Conditions: cited from earlier work.
The target in data set [14] is T1, tetrodotoxin-resistant (TTXr) Na+ currents encoded by Nav1.8 (Homo sapiens, UniProt Q9Y5Y9).
T1 construct: host or cells: sensory neurons
The conditions noted are these: preference for TTXr Na+ currents encoded by Nav1.8; cited from earlier work.

In the next data set the test system is humans. Conditions: cited from earlier work.

“Also recorded” adds a separate entry of the source.

Regarding `NCC1(CC(=O)O)CCCCC1` [Gabapentin], in [1], the “effect of earlier treatment (patient history)” value was “not helpful”.
Turning to `CN(Cc1cc(Br)cc(Br)c1N)C1CCCCC1` [bromhexine, 2,4-dibromo-6-[[cyclohexyl(methyl)amino]methyl]aniline], the “swelling in the treated area” value in data set [2] (20 min after bromhexine) is “reduction of swelling”. Further, the “extent of possible free of pain elbow rotation” value in [2] (20 min after bromhexine, left treated elbow) is “increased”. Further, the “reddening of the treated left hand” value in data set [2] (20 min following topical bromhexine, right hand untreated) is recorded as “reduction of reddening”. Besides, the “pain and feeling of swelling and tension” value in [2] (20 min following topical bromhexine, treated left hand) is given as “impressive reduction”. The “movements of the left hand and arm” value in data set [2] (about 30 min after bromhexine, none free of pain in untreated right arm) is “able to perform movements free of pain; also recorded: diverse possible movements free of pain”. Further, the “extent of possible finger spreading” value in [2] (treated left hand compared to untreated right hand, 20 min) is listed as “much better”. Besides, the stabbing sensations entry in data set [3] (after bromhexine) was “reduced”. Moreover, the “pain level (NRS)” value in [3] (within 30 minutes, NRS 6 before bromhexine) is recorded as “about 4”; in data set [6] (30 min after topical bromhexine, starting pain level NRS 7, knee with CPSP), 6 NRS; in data set [6] (another occasion, both knees, NRS 6 before bromhexine, after 2 hours) it was 3 NRS; in data set [6] (within 2 hours after topical bromhexine, starting pain level NRS 7, knee with CPSP), 4 NRS; in data set [1] (8 hours later, NRS 5 before) it was 2 NRS. Moreover, the “pain in the treated area (NRS)” value in data set [4] (after 15 min) is recorded as 4 NRS; in data set [4] (after 30 min) it was 1 NRS. Also, the “tingling sensation and subjective hypersensitivity” value in data set [4] (after the first few minutes, treated dorsal area) was “disappeared completely”. The “closure of the fist” value in data set [5] was “closed completely and with reduced pain; also recorded: performed completely and with reduced pain”; in data set [12] (before: only half-closed without pain), “completely possible without pain; also recorded: closed completely and without pain”. For the same compound, the “pain (NRS)” value in [7] amounted to 0.5 NRS. Besides, in [1] (8 hours later), the “functional impairment of walking” value is listed as “without recurrence”. Moreover, the “pain during heel-to-toe roll and forefoot touch sensitivity” value in data set [1] (after 30 min, for hours, NRS 5 before) is listed as “disappeared”. The “pain level (NRS) during heel-to-toe roll and forefoot touch sensitivity” value in [1] (within 15 min after topical bromhexine, NRS 5 before) was found to be 1 NRS. Moreover, the closure of fist result in [8] (5 min after topical bromhexine, both hands) is listed as “improved notable in motion sequence; also recorded: improved notably in motion sequence”. Also, the “time to first improvement of pain and movements” value in data set [8] (after application of bromhexine cream at both hands) is reported as 2 min. The “duration of the improvement” value in [8] (in vivo) was “several hours”. Further, the “motions of the hand” value in data set [9] is on record as “without stabbing sensations”. For the same compound, the “burning pain (NRS)” value in data set [9] (8 NRS before) turned out to be 3 NRS. For the same compound, the secretion volume result in the data set with mucus (in vivo) is “increases”. Also, the “viscosity of the sputum” value in the data set on mucus (in vivo) was “decreases”. In addition, the side-effects entry in the data set with mucus (known oral use) is “very few side-effects”. Further, the “pain intensity (NRS)” value in [10] was determined as 4.5 NRS. In addition, the side effects result with treated patients is given as “None of the treated patients reported side effects”. In data set [11], the bioavailability result is reported as “relatively low”. In addition, the hepatic first-pass effect result in data set [11] is on record as “up to 80%”. Besides, in data set [11], the “passage of the blood-brain barrier” value is “pass the blood-brain barrier”. Also, the “swelling of the treated right hand” value in data set [12] is listed as “strongly reduced”. For the same compound, the “movement of the thumb to the palm” value in data set [12] (impossible before) was “free of pain; also recorded: not any longer limited by pain”. In addition, in data set [13] (30 min following topical bromhexine), the stabbing result is on record as “disappeared”. Besides, the “pain in both hands with tension, stiffness, swelling and stabbing” value in [13] (30 min following topical bromhexine to the hands, NRS 5 before) was “disappeared broadly”.
Turning to `CCN(CC)CC(=O)Nc1c(C)cccc1C` [lidocaine], the “effect of earlier treatment (patient history)” value in [6] (topical plasters, before bromhexine) is “not been helpful”; in data set [1], “not helpful”.
In the case of `Nc1c(Br)cc(Br)cc1CN[C@H]1CC[C@H](O)CC1` [Ambroxol], in the data set on rodents, the pain-related behavior result is given as “reduce pain-related behavior”. Also, the “Na+ currents in sensory neurons” value in data set [14] is “block Na+ currents”. In addition, the pain entry in the data set with humans is “alleviate pain”.
